Laboratory results from patent publication US8138191B2, “Inhibitor compounds and cancer treatment methods” (Critical Outcome Technologies Inc., priority 2007, dated 2012).
Read-outs that look alike come from different tables or passages of the source.

Columns and labels:
[1] = tested on: DMS153; test: Resistance testing over 5 generations, DMS153; type: cell-based, human; conditions: DMS153, 5 generations
Procedure: (§1) In order to evaluate the induction of resistance in vitro, compounds according to the invention were tested in head to head comparisons against conventional therapeutic agents Cisplatin® and Taxotere®. The compound designated COTI-4 (which is the subject of Applicant's co-pending U.S. provisional patent application entitled “Composition and Method for Treatment” filed Dec. 26, 2007) was also tested. The structure for COTI-4 is:
(§2) IC50 values were obtained using methods known to persons skilled in the art with two different human SCLC cell lines (DMS153 and SHP77) obtained from the National Cancer Institute. […] The procedure was repeated for a total of 5 generations. Emerging resistance was identified by increasing IC50 values in successive generations.

[2] = tested on: SHP77; test: in vitro IC50 against cancer cell lines, SHP77; type: cell-based; conditions: Homo sapiens, 72 h; SHP77, SCLC, 3 days
Procedure: (§3) Briefly, cells were plated in plastic tissue culture plates and grown under standard conditions for each cell line, in carbon dioxide/oxygen atmosphere in plastic tissue culture plates, in the presence of COTI-2 or COTI-219 compounds at 35° C. for 3 days. Control cultures were treated with vehicle minus compound. Cells were counted after 3 days in culture and at a cell density of no more than 80%. The following cell lines, obtained from the National Cancer Institute, were tested: human SCLC cell lines DMS153, DMS114, SHP77; human NSCLC cell lines H226, A460, A560; human breast cancer cell lines T47D, MCF7; human colon cancer cell line HT29; and, human Leukemia cell lines K562, HL60.

[3] = tested on: H292; test: CellTiter-Blue growth inhibition, single agents and combinations, H292; type: cell-based; conditions: Homo sapiens, read-out: Mean IC50, single agent
Procedure: (§4) The stock concentration was further diluted to 1 mM and added to a drug plate. […] Following dilution, 2 μl of test agent was transferred to the corresponding wells of a cell-containing 96-well plate with 198 μl of growth media. Tarceva® (erlotinib) was supplied by LC Labs (Woburn, Mass.).
(§5) Viable cell numbers were quantified by the CellTiter-Blue® cell viability assay, which measures the conversion of the indicator dye (resazurin) to resorufin, an indicator of cell viability. Experiments were repeated at least twice with the same concentrations to determine growth inhibitory activity.
(§6) The CI, a numerical value calculated as described in equation A, also provides a quantitative measure of the extent of drug interaction. A CI of less than, equal to, and more than 1 indicates synergy, additivity, and antagonism, respectively. CI=(CAx/ICx,A)+(CB,x/ICx,B) Equation A: Where CA,x and CB,x, are the concentrations of drug A and drug B used in combination to achieve x % drug effect. ICx,A and ICx,B are the concentrations for single agents to achieve the same effect.

[4] = Half-life and liver clearance rate by human liver microsomes (HLM) at 0.5 mg/mL; type: in vitro ADME; conditions: liver microsomes
Procedure: Sampling was conducted at 1, 20, 40, 60, 120,180 and 240 minutes and the remaining concentration of each compound was evaluated. A half life (T1/2) was calculated at each concentration, along with the rate of clearance by the liver (CL). The CL values compare favorably with published values for other marketed therapeutic agents under identical conditions. The half life of compounds according to the invention is therefore likely to be long enough to permit convenient dosing, while not being so long as to lead to accumulation in patients with potential long term toxicity effects.
The incubation mixture (500 μl) consisted of 100 μl of COTI-2, 150 μl of liver microsomal fractions (1.67 mg/ml rat/human) 35.5 μl of 100 mM phosphate buffer and 214.5 μl co-factor (NADPH, UDPGA, and MgCl2). The COTI-2 compound mixture and co-factor were pre-warmed at 37° C. for 5 min, with shaking at 150 rpm. The reaction was started by adding co-factor to the test compound mixture. The final concentration of the incubation mixture was as follows:
Blank incubation was performed with the co-factors. The sampling time points included 0 and 240 min for the blank sample, and 0, 20, 40, 60, 120, 180, and 240 min for COTI-2. At each time point 50 μl of sample was added to 150 μl of methanol to stop the reaction. The sample plates were centrifuged at 4200 rpm for 15 min and the supernatant was injected into LC-MS/MS for analysis. The percent compound remaining, rate of elimination (Kel), half-life (T1/2), and intrinsic clearance (CL) using standard calculations.

[5] = tested on: SNB-19; test: IC50 human glioma/astrocytoma cell lines (alamar Blue), SNB-19; conditions: Homo sapiens, SNB-19
Procedure: (§7) Cell lines were obtained from the Human Tissue Culture Collection (ATCC), grown and maintained under ATCC-specified conditions, and tested to ensure viability and lack of contaminating mycoplasma and common viruses. […] A viability stain (alamar Blue) was added to cells after 4-7 days of drug exposure (approximately 4 doublings of control cells; maximum cell density in wells approximately 80%), and assayed for total cellular metabolic activity (a function of population density of live cells) by absorbance.

[6] = tested on: DMS114 and SHP-77 human small cell lung cancer lines; test: Actual outcome of in vitro testing in both reference human SCLC lines; type: cell-based
Procedure: as §3

[7] = tested on: SHP77; test: Resistance testing over 5 generations, SHP77; type: cell-based, human; conditions: SHP77, 5 generations
Procedure: as §1, §2

[8] = tested on: SF-295; test: IC50 human glioma/astrocytoma cell lines (alamar Blue), SF-295
Procedure: as §7

[9] = tested on: U87; test: IC50 human glioma/astrocytoma cell lines (alamar Blue), U87; conditions: Homo sapiens, U-87 MG
Procedure: as §7

[10] = tested on: HCT-116; test: CellTiter-Blue growth inhibition, single agents and combinations, HCT-116; type: cell-based; conditions: Homo sapiens, read-out: Mean IC50, single agent
Procedure: as §4
as §5, with “Cells were grown to 70% confluency, trypsinized, counted, and seeded in 96-well flat-bottom plates at a final concentration of 2.5×10^3−5×10^3 cells/well (Day 0). […] Viable” for “Viable”
as §6

[11] = tested on: SF-268; test: IC50 human glioma/astrocytoma cell lines (alamar Blue), SF-268
Procedure: as §7

[12] = tested on: HCT-15; test: Tumor cell proliferation, single agents and combinations, HCT-15; type: cell-based; conditions: Homo sapiens
Procedure: The 3 cell lines were treated as follows:
Day 1: Cells were plated in 96-well flat bottom plates (VWR, Mississauga, ON, Canada) and allowed to adhere overnight.
All treated and control cells were, therefore, exposed to a 1% DMSO concentration plus the desired concentration of COTI-2.
as §6

[13] = tested on: MCF7; test: in vitro IC50 against cancer cell lines, MCF7; type: cell-based; conditions: Homo sapiens, 72 h; MCF7, Breast Cancer, 3 days
Procedure: as §3

[14] = 10 μmol, read-out: In vitro T½ (converted)
[15] = 100 μmol, read-out: In vitro T½ (converted)
[16] = average over 1, 10 and 100 μM, read-out: average half life (converted)
[17] = value before brackets, from 3 in vitro experiments, read-out: In vitro T½

| SMILES | emerging resistance: ratio of IC50 to IC50 of parental generation [1] | IC50 [2] [nM] | microsomal CLint at 1 µM ([4]; 1 μM) [µL/min/mg] | half-life at 1 µM ([4]; 1 μM, read-out: T1/2) [h] | half-life at 1 µM ([4]; 1 μmol, read-out: In vitro T½) [h] | microsomal CLint at 10 µM ([4]; 10 μM) [µL/min/mg] | half-life at 10 µM ([4]; 10 μM, read-out: T1/2) [h] | half-life at 10 µM [4, 14] [h] | microsomal CLint at 100 µM ([4]; 100 μM) [µL/min/mg] | half-life at 100 µM ([4]; 100 μM, read-out: T1/2) [h] | half-life at 100 µM [4, 15] [h] | half-life [4, 16] [h] | half-life [4, 17] [h] | IC50 [5] [nM] | Actual outcome of in vitro testing [6] | emerging resistance: ratio of IC50 to IC50 of parental generation [7] | IC50 [8] [nM] | IC50 [9] [nM] | IC50 [11] [nM] | IC50 [13] [nM] | further results |
| --- | --- | --- | --- | --- | --- | --- | --- | --- | --- | --- | --- | --- | --- | --- | --- | --- | --- | --- | --- | --- | --- |
| S=C(N/N=C1/CCCc2cccnc21)N1CCN(c2ccccn2)CC1 [COTI-2] | less than 1 | 156 | 12 | 1.7 | 1.7 | 4 | 4.76 | 4.8 | 2 | 11.4 | 11.4 | 6 | ~6 | 8 | Active | less than 1 | 184 | 48 | 66 | 101 | IC50 ([3]; NCI-H292, 72 h): 3.9 nM; IC50 ([10]; HCT-116, 72 h): 3.6 nM; IC50 ([12]; HCT-15, read-out: Mean IC50, single agent): 8.3 nM |
| CN1CCN(C(=S)NN=C2c3ncccc3-c3cccnc32)CC1 [COTI-219] | little to no emerging resistance | 787 | 4.2 | 5.02 | 5 | 3 | 7.01 | 7 | 2.5 | 8.47 | 8.5 | 6.8 | ~6.8 | 1990 | Active | little to no emerging resistance | 2390 | 2370 | 1170 | 421 | IC50 ([3]; NCI-H292, H292, NSCLC, EGFR - WT, 72 h): 20 nM; IC50 ([10]; HCT-116, Colon, KRAS - MUT, 72 h): 8.7 nM; IC50 ([12]; HCT-15, Colon, KRAS - MUT, read-out: Mean IC50, single agent): 5.1 nM |
